What follows are compounds tested against T1, Poly [ADP-ribose] polymerase 1 (Homo sapiens, UniProt P09874) (assay: Inhibition of PARP1 (unknown origin)). Settings: not given.
T1 sequence (P09874 whole entry): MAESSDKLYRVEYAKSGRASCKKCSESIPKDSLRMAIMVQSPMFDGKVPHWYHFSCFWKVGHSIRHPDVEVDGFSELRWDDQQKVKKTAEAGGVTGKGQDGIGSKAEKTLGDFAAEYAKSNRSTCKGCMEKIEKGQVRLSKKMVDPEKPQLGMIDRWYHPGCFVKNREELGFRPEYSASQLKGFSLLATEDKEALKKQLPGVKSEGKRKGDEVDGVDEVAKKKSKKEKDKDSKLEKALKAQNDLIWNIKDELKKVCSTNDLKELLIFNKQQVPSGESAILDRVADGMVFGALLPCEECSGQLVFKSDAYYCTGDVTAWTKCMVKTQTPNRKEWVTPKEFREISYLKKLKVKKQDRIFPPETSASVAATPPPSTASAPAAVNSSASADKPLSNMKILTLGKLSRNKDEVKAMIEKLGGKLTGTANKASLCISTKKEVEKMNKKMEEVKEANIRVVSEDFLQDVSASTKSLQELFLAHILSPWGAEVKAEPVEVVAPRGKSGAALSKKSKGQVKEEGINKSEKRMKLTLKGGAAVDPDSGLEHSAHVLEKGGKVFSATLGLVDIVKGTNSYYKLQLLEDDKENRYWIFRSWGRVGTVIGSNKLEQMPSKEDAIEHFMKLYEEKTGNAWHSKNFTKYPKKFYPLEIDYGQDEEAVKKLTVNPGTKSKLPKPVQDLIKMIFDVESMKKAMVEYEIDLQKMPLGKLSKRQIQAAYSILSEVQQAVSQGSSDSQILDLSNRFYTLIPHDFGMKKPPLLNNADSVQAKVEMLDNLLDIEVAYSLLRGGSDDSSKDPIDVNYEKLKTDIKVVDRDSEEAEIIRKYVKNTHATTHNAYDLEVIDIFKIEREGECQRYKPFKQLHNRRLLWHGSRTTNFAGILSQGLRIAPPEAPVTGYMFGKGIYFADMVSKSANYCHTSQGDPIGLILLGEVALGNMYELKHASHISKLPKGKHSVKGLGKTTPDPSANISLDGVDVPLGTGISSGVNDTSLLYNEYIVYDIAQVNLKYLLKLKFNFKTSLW

Q: For `CCCN1CCC(c2nc3c(C(N)=O)cncc3[nH]2)CC1`, which IC50 is on record?
A: 528 nM

Q: With `CC(C)N1CCCC(c2nc3c(C(N)=O)cncc3[nH]2)C1` (configuration not stated) as the compound, how does the IC50 read?
A: 651 nM

Q: `CN1CCC(c2nc3c(C(N)=O)cncc3[nH]2)CC1` was tested. Which IC50 did it give?
A: 1450 nM

Q: For `CCCN1CCCC(c2nc3c(C(N)=O)cncc3[nH]2)C1` (configuration not stated), which IC50 is on record?
A: 938 nM

Q: `NC(=O)c1cncc2[nH]c(C3CCCNC3)nc12` (configuration not stated) was tested. Which IC50 did it give?
A: 636 nM

Q: How did the IC50 turn out when `NC(=O)c1cncc2[nH]c(C3CCNCC3)nc12` was run?
A: 825 nM

These compounds were tested against T1, Poly [ADP-ribose] polymerase 1. Settings: 100 uM.
Description: Inhibition of PARP1 (unknown origin) at 100 uM

Q: `NC(=O)c1cccc(N)c1` was tested. Which inhibition did it give?
A: 100%

From ChEMBL document CHEMBL2346520, “Design, synthesis and biological evaluation of novel imidazo[4,5-c]pyridinecarboxamide derivatives as PARP-1 inhibitors” (Bioorg Med Chem Lett, 2013)
